Laboratory results as given in the CheMixHub viscosity set.
± gives the uncertainty stated by the source.

Test: xn = mol fraction of the nth substance listed

c1ccc2ncccc2c1 + Oc1ccccc1Cl
Settings	viscosity [mPa·s]
293.15 K, 101 kPa, x2 = 0.1686	6.62 ± 0.07
293.15 K, 101 kPa, x2 = 0.3263	13 ± 0.17
293.15 K, 101 kPa, x2 = 0.4251	23.62 ± 0.4
293.15 K, 101 kPa, x2 = 0.4893	33.45 ± 0.69
293.15 K, 101 kPa, x2 = 0.5043	35.1 ± 0.69
293.15 K, 101 kPa, x2 = 0.534	36.9 ± 0.76
293.15 K, 101 kPa, x2 = 0.5506	37.25 ± 0.79
293.15 K, 101 kPa, x2 = 0.5803	36.62 ± 0.78
293.15 K, 101 kPa, x2 = 0.6353	31.62 ± 0.67
293.15 K, 101 kPa, x2 = 0.7227	21.85 ± 0.39
293.15 K, 101 kPa, x2 = 0.8671	9.95 ± 0.14
298 K, 101.3 kPa, x1 = 0.0761	4.871 ± 0.061
298 K, 101.3 kPa, x1 = 0.1549	7.882 ± 0.11
298 K, 101.3 kPa, x1 = 0.2343	11.68 ± 0.23
298 K, 101.3 kPa, x1 = 0.3348	19.63 ± 0.51
298 K, 101.3 kPa, x1 = 0.4286	26.3 ± 0.77
298 K, 101.3 kPa, x1 = 0.5274	21.74 ± 0.58
298 K, 101.3 kPa, x1 = 0.6364	12.94 ± 0.27
298 K, 101.3 kPa, x1 = 0.7447	8.205 ± 0.13
298 K, 101.3 kPa, x1 = 0.8898	4.628 ± 0.055
303 K, 101.3 kPa, x1 = 0.0761	4.063 ± 0.039
303 K, 101.3 kPa, x1 = 0.1549	6.073 ± 0.069
303 K, 101.3 kPa, x1 = 0.2343	9.042 ± 0.13
303 K, 101.3 kPa, x1 = 0.3348	14.39 ± 0.32
303 K, 101.3 kPa, x1 = 0.4286	18.2 ± 0.48
303 K, 101.3 kPa, x1 = 0.5274	16.12 ± 0.38
303 K, 101.3 kPa, x1 = 0.6364	10.29 ± 0.17
303 K, 101.3 kPa, x1 = 0.7447	6.433 ± 0.069
303 K, 101.3 kPa, x1 = 0.8898	4.058 ± 0.034
303.15 K, 101 kPa, x2 = 0.1686	4.87 ± 0.05
303.15 K, 101 kPa, x2 = 0.3263	9.11 ± 0.1
303.15 K, 101 kPa, x2 = 0.4251	14.4 ± 0.18
303.15 K, 101 kPa, x2 = 0.4893	17.92 ± 0.28
303.15 K, 101 kPa, x2 = 0.5043	18.4 ± 0.28
303.15 K, 101 kPa, x2 = 0.534	19 ± 0.3
303.15 K, 101 kPa, x2 = 0.5506	19.01 ± 0.3
303.15 K, 101 kPa, x2 = 0.5803	18.88 ± 0.29
303.15 K, 101 kPa, x2 = 0.6353	17.42 ± 0.25
303.15 K, 101 kPa, x2 = 0.7227	12.82 ± 0.17
303.15 K, 101 kPa, x2 = 0.8671	6.41 ± 0.08
308 K, 101.3 kPa, x1 = 0.0761	3.469 ± 0.032
308 K, 101.3 kPa, x1 = 0.1549	5.006 ± 0.046
308 K, 101.3 kPa, x1 = 0.2343	7.403 ± 0.087
308 K, 101.3 kPa, x1 = 0.3348	11.49 ± 0.2
308 K, 101.3 kPa, x1 = 0.4286	14.09 ± 0.3
308 K, 101.3 kPa, x1 = 0.5274	12.37 ± 0.24
308 K, 101.3 kPa, x1 = 0.6364	8.401 ± 0.11
308 K, 101.3 kPa, x1 = 0.7447	5.506 ± 0.045
308 K, 101.3 kPa, x1 = 0.8898	3.581 ± 0.03
313 K, 101.3 kPa, x1 = 0.0761	2.998 ± 0.027
313 K, 101.3 kPa, x1 = 0.1549	4.205 ± 0.04
313 K, 101.3 kPa, x1 = 0.2343	6.048 ± 0.061
313 K, 101.3 kPa, x1 = 0.3348	9.267 ± 0.14
313 K, 101.3 kPa, x1 = 0.4286	11.03 ± 0.19
313 K, 101.3 kPa, x1 = 0.5274	9.852 ± 0.15
313 K, 101.3 kPa, x1 = 0.6364	7.017 ± 0.074
313 K, 101.3 kPa, x1 = 0.7447	4.762 ± 0.041
313 K, 101.3 kPa, x1 = 0.8898	3.171 ± 0.027
313.15 K, 101 kPa, x2 = 0.1686	3.71 ± 0.04
313.15 K, 101 kPa, x2 = 0.3263	6.35 ± 0.06
313.15 K, 101 kPa, x2 = 0.4251	8.96 ± 0.09
313.15 K, 101 kPa, x2 = 0.4893	10.47 ± 0.13
313.15 K, 101 kPa, x2 = 0.5043	10.73 ± 0.12
313.15 K, 101 kPa, x2 = 0.534	10.95 ± 0.12
313.15 K, 101 kPa, x2 = 0.5506	10.98 ± 0.12
313.15 K, 101 kPa, x2 = 0.5803	10.89 ± 0.12
313.15 K, 101 kPa, x2 = 0.6353	10 ± 0.11
313.15 K, 101 kPa, x2 = 0.7227	7.64 ± 0.08
313.15 K, 101 kPa, x2 = 0.8671	4.33 ± 0.05
318 K, 101.3 kPa, x1 = 0.0761	2.614 ± 0.022
318 K, 101.3 kPa, x1 = 0.1549	3.59 ± 0.031
318 K, 101.3 kPa, x1 = 0.2343	4.979 ± 0.049
318 K, 101.3 kPa, x1 = 0.3348	7.306 ± 0.11
318 K, 101.3 kPa, x1 = 0.4286	8.786 ± 0.15
318 K, 101.3 kPa, x1 = 0.5274	7.927 ± 0.12
318 K, 101.3 kPa, x1 = 0.6364	5.922 ± 0.054
318 K, 101.3 kPa, x1 = 0.7447	4.17 ± 0.031
318 K, 101.3 kPa, x1 = 0.8898	2.824 ± 0.022

O=C([O-])[O-].[Na+].[Na+] + [2H]O[2H]
viscosity [mPa·s], 101 kPa
Settings	x1 = 0.009	x1 = 0.018	x1 = 0.031	x1 = 0.041
298.15 K	1.4 ± 0.014	1.847 ± 0.019	2.881 ± 0.029	4.233 ± 0.042
308.15 K	1.094 ± 0.011	1.443 ± 0.015	2.174 ± 0.022	3.115 ± 0.031
318.15 K	0.895 ± 0.009	1.167 ± 0.012	1.725 ± 0.017	2.435 ± 0.024

CCC(C)=O + c1ccccc1
Settings	viscosity [mPa·s]
293.15 K, 101 kPa, x1 = 0.2	0.569 ± 0.015
293.15 K, 101 kPa, x1 = 0.4	0.511 ± 0.014
293.15 K, 101 kPa, x1 = 0.5	0.487 ± 0.013
293.15 K, 101 kPa, x1 = 0.6	0.471 ± 0.013
293.15 K, 101 kPa, x1 = 0.8	0.435 ± 0.012
298 K, 101.33 kPa, x2 = 0.1513	0.3919 ± 0.0054
298 K, 101.33 kPa, x2 = 0.2663	0.4141 ± 0.0057
298 K, 101.33 kPa, x2 = 0.2941	0.4175 ± 0.0057
298 K, 101.33 kPa, x2 = 0.4321	0.4408 ± 0.006
298 K, 101.33 kPa, x2 = 0.5597	0.4674 ± 0.0063
298 K, 101.33 kPa, x2 = 0.6057	0.4775 ± 0.0065
298 K, 101.33 kPa, x2 = 0.7302	0.5097 ± 0.0069
298 K, 101.33 kPa, x2 = 0.8777	0.5571 ± 0.0074
298.15 K, 101 kPa, x2 = 0.106	0.4072 ± 0.0044
298.15 K, 101 kPa, x2 = 0.197	0.4173 ± 0.0045
298.15 K, 101 kPa, x2 = 0.3	0.4324 ± 0.0046
298.15 K, 101 kPa, x2 = 0.4	0.4487 ± 0.0048
298.15 K, 101 kPa, x2 = 0.5	0.4672 ± 0.0049
298.15 K, 101 kPa, x2 = 0.615	0.4908 ± 0.0052
298.15 K, 101 kPa, x2 = 0.694	0.508 ± 0.0053
298.15 K, 101 kPa, x2 = 0.793	0.5355 ± 0.0056
298.15 K, 101 kPa, x2 = 0.895	0.5683 ± 0.0059
299.15 K, 101.3 kPa, x2 = 0.098	0.41 ± 0.011
299.15 K, 101.3 kPa, x2 = 0.198	0.425 ± 0.011
299.15 K, 101.3 kPa, x2 = 0.298	0.443 ± 0.012
299.15 K, 101.3 kPa, x2 = 0.398	0.455 ± 0.012
299.15 K, 101.3 kPa, x2 = 0.498	0.474 ± 0.013
299.15 K, 101.3 kPa, x2 = 0.599	0.497 ± 0.013
299.15 K, 101.3 kPa, x2 = 0.699	0.519 ± 0.014
299.15 K, 101.3 kPa, x2 = 0.799	0.546 ± 0.014
299.15 K, 101.3 kPa, x2 = 0.899	0.584 ± 0.015
303.15 K, 101 kPa, x1 = 0.1023	0.538 ± 0.004
303.15 K, 101 kPa, x1 = 0.2	0.498 ± 0.013
303.15 K, 101 kPa, x1 = 0.2042	0.509 ± 0.004
303.15 K, 101 kPa, x1 = 0.395	0.467 ± 0.004
303.15 K, 101 kPa, x1 = 0.4	0.454 ± 0.012
303.15 K, 101 kPa, x1 = 0.5	0.434 ± 0.012
303.15 K, 101 kPa, x1 = 0.5129	0.444 ± 0.004
303.15 K, 101 kPa, x1 = 0.6	0.42 ± 0.011
303.15 K, 101 kPa, x1 = 0.6822	0.42 ± 0.004
303.15 K, 101 kPa, x1 = 0.8	0.391 ± 0.011
303.15 K, 101 kPa, x1 = 0.853	0.396 ± 0.004
307.35 K, 101.33 kPa, x1 = 0.0925	0.501 ± 0.0092
307.35 K, 101.33 kPa, x1 = 0.2405	0.462 ± 0.0089
307.35 K, 101.33 kPa, x1 = 0.3178	0.446 ± 0.0088
307.35 K, 101.33 kPa, x1 = 0.4477	0.424 ± 0.0086
307.35 K, 101.33 kPa, x1 = 0.5084	0.41 ± 0.0085
307.35 K, 101.33 kPa, x1 = 0.616	0.394 ± 0.0084
307.35 K, 101.33 kPa, x1 = 0.7356	0.378 ± 0.0082
308.15 K, 101 kPa, x1 = 0.2	0.471 ± 0.013
308.15 K, 101 kPa, x1 = 0.4	0.431 ± 0.012
308.15 K, 101 kPa, x1 = 0.5	0.414 ± 0.011
308.15 K, 101 kPa, x1 = 0.6	0.401 ± 0.011
308.15 K, 101 kPa, x1 = 0.8	0.373 ± 0.01
318.15 K, 101 kPa, x1 = 0.2	0.421 ± 0.011
318.15 K, 101 kPa, x1 = 0.4	0.388 ± 0.01
318.15 K, 101 kPa, x1 = 0.5	0.373 ± 0.01
318.15 K, 101 kPa, x1 = 0.6	0.362 ± 0.01
318.15 K, 101 kPa, x1 = 0.8	0.339 ± 0.009
